Measurements as given in PMC8113213, “Physiologically based kinetic modelling based prediction of in vivo rat and human acetylcholinesterase (AChE) inhibition upon exposure to diazinon” (Archives of Toxicology, 2021).
Read-outs that look alike come from different tables or passages of the source.

Legend:
[1] = tested on: natural human RBC AChE; conditions: ref Fakhri-Bafghi et al. 2016; cited from earlier work
[2] = human; ref Poklis et al. 1980; cited from earlier work
[3] = rat, ref Poet et al. 2004, cited from earlier work
[4] = target: T1, rat RBC AChE (Rattus norvegicus, UniProt P37136); test: In vitro AChE inhibition assay (Ellman) with extracted rat RBC AChE; assay type: biochemical
T1 construct: the membrane fraction (containing AChE) was sedimented by centrifugation at 20,000g for 40 min; tissue BioIVT; host or cells: rat red blood cell membranes (from whole blood)
T1 sequence (P37136 other isoform, or with tags, fused parts or gaps): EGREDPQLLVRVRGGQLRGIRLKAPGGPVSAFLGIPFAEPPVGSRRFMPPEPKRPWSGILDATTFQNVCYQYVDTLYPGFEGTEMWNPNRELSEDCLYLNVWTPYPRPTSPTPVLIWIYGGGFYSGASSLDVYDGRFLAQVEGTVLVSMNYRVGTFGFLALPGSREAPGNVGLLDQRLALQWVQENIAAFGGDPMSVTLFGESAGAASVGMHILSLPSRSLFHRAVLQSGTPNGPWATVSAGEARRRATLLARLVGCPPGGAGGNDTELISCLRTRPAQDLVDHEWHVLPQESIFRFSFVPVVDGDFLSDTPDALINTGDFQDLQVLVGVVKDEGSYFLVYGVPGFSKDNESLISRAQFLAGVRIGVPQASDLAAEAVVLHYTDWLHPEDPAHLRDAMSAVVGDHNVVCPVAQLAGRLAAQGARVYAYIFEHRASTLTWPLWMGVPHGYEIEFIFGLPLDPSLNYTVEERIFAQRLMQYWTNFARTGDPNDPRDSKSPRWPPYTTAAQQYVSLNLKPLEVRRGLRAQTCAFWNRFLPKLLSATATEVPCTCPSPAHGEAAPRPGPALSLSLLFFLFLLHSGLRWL
Protocol: However, since recombinant rat AChE was not commercially available, extracted rat RBC AChE was used. […] The concentration of DTNB was calculated based on the concentration ratio (ATC/DTNB) of 2 (Stern et al. [2014]). […] To initiate the inhibition reaction, 1 µl rhAChE or rat AChE (final concentration 0.6 mU/ml) was added to the incubation. The total incubation volume was 50 µl. After 15 min incubation at 37℃, 150 µl reaction reagents (mixture of ATC at a final concentration of 150 µM and DTNB at a final concentration of 75 µM) were added into each well. The final total volume of each well was 200 µl. Subsequently, the 96-well plate was measured continuously for 10 min at absorbance 412 nm at 37℃ to quantify the remaining AChE activity.
The rhAChE and rat AChE activity were expressed as the remaining AChE activity relative to solvent control (100% activity) and positive control (0% activity) based on Eq. (2):2 AChEactivity\%=A412t10-t0testcompound-A412t10-t0positivecontrol/A412t10-t0solventcontrol-A412t10-t0positivecontrol×100\% , where the A412(t10 − t0)test compound is the change in the absorbance at A412 nm between 0 and 10 min for the test compound, the A412(t10 − t0)positive control is the change in the absorbance at A412 nm between 0 and 10 min for the CPO sample, and the A412(t10 − t0)solvent control is the change in the absorbance at A412nm between 0 and 10 min for the 0.2% ethanol sample.

[5] = rat; ref JMPR 2016; cited from earlier work
[6] = human, cited from earlier work
[7] = tested on: brain AChE; conditions: cited from earlier work; for inhibition of brain AChE: ref Padilla et al. 2004
[8] = tested on: RBC AChE; test: TEF-coded PBK model-based reverse dosimetry, predicted in vivo RBC AChE inhibition, human
From the text: The PBK model for DZN was developed based on the model from Poet et al. ([2004]) with some modifications for both rat and human. The model contains a submodel for the metabolite DZO and was defined to include compartments for rapidly perfused tissue, slowly perfused tissue, liver, fat and blood for both the parent compound DZN and its metabolite DZO. The model also contains a compartment to describe the urinary elimination of the metabolites IMHP and DAP (sum of DEP and DETP). In the currently developed model, oral exposure was included since we aimed at defining a POD for risk assessment of exposure via food and drinking water, and intravenous (IV) exposure was included for model evaluation. The fractional absorption (fa) was set equal to literature reported values, being 0.8 in rat (Poet et al. [2004]) and 0.66 in human (Garfitt et al. [2002]) and applied to the overall dose. […]
The physiological parameters for rat and human were obtained from Brown et al. ([1997]) as well as Gearhart et al. ([1990]), and are summarised in Table 1. […] The Km values determined in vitro were assumed to be equal to in vivo Km values. […]

CCOP(=S)(OCC)Oc1cc(C)nc(C(C)C)n1 [DZN, O,O-diethyl O-2-isopropyl-6-methylpyrimidin-4-yl phosphorothioate]
IC50 [1]: 24.4 µM
toxic dose level reported [2]: 293 mg/kg bw
fractional absorption (fa) ([3]; oral): 0.8
first-order rate constant for absorption from the intestine into the liver (KaI) [3]: 0.59 h⁻¹
first-order rate constant for absorption from the stomach into the liver (KaS) [3]: 0.1 h⁻¹
first-order rate constant for transfer from the stomach into the intestine (KsI) [3]: 0.48 h⁻¹
IC50 ([4]; rat RBC AChE, 15 min incubation at 37℃): 14.7 µM
toxic equivalency factor (TEF) ([4]; rat, IC50 DZO/IC50 DZN, TEF of DZO set at 1.0): 0.00351
toxic dose level reported [5]: 300 mg/kg bw
fractional absorption (fa) ([6]; oral, ref Garfitt et al. 2002): 0.66
first-order rate constant for absorption from the intestine into the liver (KaI) ([6]; ref Poet et al. 2004): 0.59 h⁻¹
first-order rate constant for absorption from the stomach into the liver (KaS) ([6]; ref Poet et al. 2004): 0.32 h⁻¹
first-order rate constant for transfer from the stomach into the intestine (KsI) ([6]; ref Poet et al. 2004): 0.48 h⁻¹
inhibition of brain AChE ([7]; adult rats, oral dose of 75 mg/kg bw): 38%
BMDL10 for inhibition of brain AChE ([7]; male adult rats, oral DZN, ref USEPA 2016): 12.175 mg/kg bw/day
inhibition of brain AChE ([7]; pups at postnatal day 17, oral dose of 75 mg/kg bw): 75%
predicted BMDL10 for human lower than that for rat [8]: 6 fold
